In patent US20010041708A1, “Compositions for preventing cellulite in mammalian skin” (Zen-Bio, Inc., priority 2000, published 2001):
“And” between values parts separate entries of the source, which are not always exact repeats. Equal values may be shown once.

Experiments:
[1] = tested on: stromal vascular (SV) cells from human adipose tissue; assay: Triglyceride (TG) content of differentiating primary cultures of SV cells; assay type: cell-based; settings: for TG content, dose response: Exp. 3, 1, 3, 10, 30 uM; for More TG content than cultures treated with 10 uM trans-10, cis-12 CLA alone: Exp. 4
Description: Abdominal adipose tissue (Exp. 1-5) and thigh adipose tissue (Exp. 5b) were obtained from middle-aged females with body mass indexes <30.0 during liposuction or elective surgery. Subsequently, tissue was minced and enzymatically digested for 45 min in a Krebs-Ringer buffer containing 1 mg/mL collagenase (CLS-1, Worthington Biochemical Corp, Lakewood, N.J.), 15 mg/mL bovine serum albumin (BSA), 5 mM glucose and 100 mM HEPES (pH 7.4). Digestion was carried out at a 5 mL/1 g ratio (digestion solution: tissue mass). The digesta was then filtered through 200- and 60-micron mesh and pelleted at 600×g for 5 min. The SV cells were resuspended in a RBC lysis buffer for 10 min and then filtered and recentrifuged to remove contaminating […]. Cultures of SV cells were grown in proliferation medium containing 90% DME/Ham's F-10 (1:1, v/v), 10% (v/v) fetal bovine serum (FBS), 15 mM HEPES (pH 7.4), 60 U/mL penicillin, 60 U/mL streptomycin, and 25 ug/mL fungizone. Cultures were incubated at 37° C. in a humidified […]:CO2 (90:10%) atmosphere. SV cells were grown to 80% confluency and then cryopreserved in liquid nitrogen in aliquots (2×10^6 cells/mL).
Cryopreserved aliquots were subsequently thawed, seeded in T-150 flasks (e.g., 1 vial per 2 T-150 flasks), and grown in proliferation media until 80% confluent. At this time the cells were removed via trypsinization, seeded (3×10^4/cm^2, except for Exp. 1) in 24-well or 96-well (Exp. 5b) Falcon dishes, and allowed to attach for 24 h in proliferation medium. Following attachment, cultures were grown in differentiation medium for the next 3 d which contained DME/Ham's F-10 (1:1,v/v), 15 mM HEPES (pH 7.4), 33 uM biotin, 17 uM pantothenate, 100 nM human insulin, 1 uM dexamethasone (DEX), 60 U/mL penicillin, 60 U/mL streptomycin, 25 ug/mL fungizone, 0.25 mM isobutylmethylxanthine (IBMX), and TZD (Exp. 1 & 2=BRL 49653; Exp. 3-5=Zen Bio's proprietary reagent). Thereafter, cultures were exposed to adipocyte medium consisting of 90% DME/Ham's F-10 (1:1,v/v), 15 mM HEPES (pH 7.4), 3% FBS (v/v), 33 uM biotin, 17 uM pantothenate, 100 nM human insulin, 1 uM DEX, 60 U/mL penicillin, 60 U/mL streptomycin, and 25 ug/mL fungizone. Adipocyte media was replaced every 3 d. […] After 18 day in culture, the majority of the cells contained visual lipid droplets.
(§1) Experiment 1 was designed to determine optimal culturing conditions during differentiation of primary cultures of SV cells isolated from human adipose tissue. Specifically, the experiment was designed to determine how seeding density and thiazolidinedione (TZD; PPARγ-agonist BRL 49653) concentration influenced TG content (ug/10^6cells). SV cells were seeded at increasing densities (2-, 3-, or 4×10^4/cm^2) in differentiation media containing 0, 1, or 10 uM TZD (BRL 49653) in this 3×3 factorial design. All cultures received the same adipocyte media after 3 d of differentiation. The cultures were harvested on day 11-12 of differentiation and TG content and cell number were measured. Another set of cultures was stained with Oil Red O and counterstained with Mayer's hematoxylin to assess cellular differentiation potential (n=3 per treatment combination).
In Experiment 2 the impact of linoleic acid and the trans-10, cis-12 isomer of CLA on TG accumulation in these cells was examined. SV cells were seeded at a density of 3×10^4/cm^2 and continuously treated with either 10 uM linoleic acid, 100 uM linoleic acid, 10 uM trans-10, cis-12 CLA, or 100 uM trans-10, cis-12 CLA, and grown under our normal differentiation protocol. One set of control cultures contained only vehicle (BSA) and another contained vehicle plus TZD (BRL 49653). TG content and cell number were measured on day 11 of differentiation.
The objective of Experiment 3 was to evaluate the dose response of trans-10, cis-12 CLA, cis-9, trans-11 CLA, and linoleic acid on TG content of the cultures. […]

[2] = tested on: stromal vascular (SV) cells from human adipose tissue; assay: Percentage of cells differentiated into adipocytes (Oil Red O staining); assay type: cell-based; settings: Exp. 1, seeding density 4×10^4
Description: as §1
The presence of intracellular lipid was visualized by staining cultures with Oil Red O as previously described for human SV cultures (McIntosh et al. (1999) Int. J. Obesity 23:595-602). […] Counterstaining allows for quantifying the percentage of cells that have undergone differentiation (e.g., […]). […]

[3] = tested on: differentiated human adipocytes; assay: Lipolysis measurement (glycerol release) in day 21 differentiated human adipocytes; settings: 3 hrs
[4] = tested on: cultures of abdominal adipocytes; assay: Lipolysis assay (glycerol release), abdominal adipocytes; assay type: cell-based, human; settings: Exp. 5b; 1 uM, 5 h, day 18, abdominal
Description: (§2) Subsequently, tissue was minced and enzymatically digested for 45 min in a Krebs-Ringer buffer containing 1 mg/mL collagenase (CLS-1, Worthington Biochemical Corp, Lakewood, N.J.), 15 mg/mL bovine serum albumin (BSA), 5 mM glucose and 100 mM HEPES (pH 7.4). Digestion was carried out at a 5 mL/1 g ratio (digestion solution: tissue mass). The digesta was then filtered through 200- and 60-micron mesh and pelleted at 600×g for 5 min. The SV cells were resuspended in a RBC lysis buffer for 10 min and then filtered and recentrifuged to remove contaminating […]. […] SV cells were grown to 80% confluency and then cryopreserved in liquid nitrogen in aliquots (2×10^6 cells/mL). In Experiment 5b, basal lipolysis was measured on day 18 of differentiation after the cultures had been treated with fatty acids for 5 h. […] Lipolysis was determined by measuring free and esterified glycerol release into the media following acute (5 h) treatment. […] On day 17 of differentiation, cultures were grown in basal adipocyte media (adipocyte media minus insulin and DEX). […] A set of vehicle controls contained 0.1% DMSO. One hundred microliters of conditioned media was removed from each well, and lipolytic rate determined by quantifying the amount of free glycerol and esterified glycerol in each sample using Sigma's triglyceride kit (GPO-Trinder, Sigma Chemical Co.).

[5] = tested on: cultures of thigh adipocytes; assay: Lipolysis assay (glycerol release), thigh adipocytes; assay type: cell-based, human; settings: Exp. 5b; 1 uM, 5 h, day 18, thigh
Description: as §2

[6] = tested on: stromal vascular (SV) cells from human adipose tissue; assay: De novo lipogenesis (14C-glucose incorporation into cellular lipid); assay type: cell-based; settings: Exp. 5a; 3, 10, 30 uM, day 12
Description: Experiments 5a and 5b were designed to determine if the trans-10, cis-12 CLA-mediated reduction in TG content was due to decreased lipogenesis and/or increased lipolysis. In Experiment 5a (lipogenesis), SV cells were seeded at a density of 3×10^4/cm^2 and continuously treated with increasing concentrations (3, 10, or 30 uM) of either linoleic acid, cis-9, tran-11 CLA, or trans-10, cis-12 CLA. A set of control cultures received vehicle (BSA) plus TZD. All cultures received differentiation media (days 1-3), adipocyte media (days 4-9), and low-glucose (˜5 mM) adipocyte media (days 10-12) prior to measuring de novo lipogenesis. On day 12, ^14C-labeled glucose incorporation into the lipid fraction of the cultures was measured for 2 h and, following lipid extraction, the radioactivity in the lipid fraction was determined by scintillation counting. Time course data (not shown) indicated a linear increase in radiolabeled glucose incorporation into lipid over 2 h.
Incorporation of ^14C-glucose into cellular lipid was determined on day 12 of differentiation in cultures chronically treated with fatty acids or vehicle. Following the addition of fatty acids and low glucose (˜5 mM) medium to the cultures on day 12, 1.0 μCi [U-^14C]-glucose ([U-^14C]-D-glucose; SA ˜250 mCi/mmol, ICN, Costa Mesa, Calif.)/mL medium was added to the cultures for 2 h. Our time course study (data not shown) indicated a linear increase in radiolabeled glucose incorporation into lipid over a 2 h period. After 2 h, media containing unincorporated ^14C-glucose was immediately removed and the cultures were washed with 1 mL HBSS to remove unincorporated ^14C-glucose. An additional 1 mL of HBSS was added and, after vigorous tritaration, cells were transferred to glass vials. Five milliliters of a chloroform:methanol (2:1) solution was added to each vial and they were vortexed for 1 min. All samples were then centrifuged for 5 min at 1000×g to further separate the hydrophobic and hydrophilic phases. The lower hydrophobic phase was removed from the tubes and dried under nitrogen at 40° C. Five milliliters of scintillation cocktail (Scinti Verse, Fisher Scientific, Norcross, Ga.) was added to each sample, and the ^14C content was determined by liquid scintillation counting on a Beckman LS 6000 Scintillation Counter (Beckman Instruments, Palo Atlo, Calif.). […] The radioactivity in the lipid fraction from these cultures was subtracted from the total counts. Cell numbers were determined from parallel treatment groups in separate culture dishes at the time of radioisotope addition to the medium. Therefore, mean ^14C-glucose incorporation is expressed as cpm/10^6 cells.

3T3-L1 preadipocytes [7] = assay: Fatty acid composition of neutral and phospholipid fractions of treated cultures; assay type: cell-based, murine
3T3-L1 preadipocytes [8] = assay: TG content of 3T3-L1 preadipocytes; assay type: cell-based, murine; settings: LA supplementation of CLA-treated cultures
PPARγ2 = PPARγ2 protein expression in 3T3-L1 preadipocytes; assay type: cell-based, murine
aP2 = aP2 protein expression in 3T3-L1 preadipocytes; assay type: cell-based, murine; settings: after 6 d of treatment
3T3-L1 preadipocytes [9] = assay: Morphological changes (apoptosis-like) in CLA-treated cultures; assay type: cell-based, murine; settings: LA supplementation of trans-10, cis-12 CLA-treated cultures
3T3-L1 preadipocytes [10] = assay: Cell number of treated 3T3-L1 cultures; assay type: cell-based, murine; settings: data not shown

CN(CCOc1ccc(CC2SC(=O)NC2=O)cc1)c1ccccn1 (stereo not drawn) [BRL 49653]
TG content, fold greater than similarly seeded cultures without BRL 49653 ([1]; Exp. 1, 10 uM, seeded at 4×10^4 cells/cm^2): 10 fold | Percentage of cells that differentiated ([2]; 1 uM TZD): 50% | Percentage of cells that differentiated ([2]; 10 uM TZD): 47%

Cn1c(=O)c2c(ncn2C)n(C)c1=O [Caffeine]
Lipolysis, fold increase over control ([3]; 0.1 % (wt./volume)): 2.4 fold and 4.2 fold

CC(C)NCC(O)c1ccc(O)c(O)c1 (stereo not drawn) [Isoproterenal]
Stimulation of lipolysis [4]: approximately 2.5 fold | Stimulation of lipolysis [5]: ~1.5 fold | Lipolysis, fold increase over control ([3]; 0.00002 % (wt./volume)): 3.4 fold

Cn1c(=O)c2[nH]cnc2n(C)c1=O [Theophylline]
Lipolysis, fold increase over control ([3]; 0.01 % (wt./volume)): 0.8 fold | Lipolysis, fold increase over control ([3]; 0.05 % (wt./volume)): 1.9 fold | Lipolysis, fold increase over control ([3]; 0.1 % (wt./volume)): 3.1 fold

CCCCCC/C=C/C=C\CCCCCCCC(=O)O [cis-9, trans-11 CLA]
TG content, dose response ([1]; day 11): increased in a dose dependent fashion | Incorporation of 14C-glucose into cellular lipid per 10^6 cells, dose response [6]: neither linoleic acid nor trans-9, cis-11 CLA influenced de novo lipogenesis | Abundance in lipid fractions relative to trans-10, cis-12 isomer (3T3-L1 preadipocytes [7]): 1-2 fold | Incorporation into cellular lipid fractions (3T3-L1 preadipocytes [7]; neutral and phospholipid fractions): incorporated into the neutral and phospholipid fractions

CCCCC/C=C\C/C=C\CCCCCCCC(=O)O [linoleic acid, 9 cis, 12 cis-octadecadienoic acid]
TG content vs other treatments / TZD treated vehicle controls ([1]; Exp. 2, 100 uM, continuous treatment, day 11): highest TG content | TG content, dose response ([1]; day 11): increased in a dose dependent fashion | More TG content than cultures treated with 10 uM trans-10, cis-12 CLA alone ([1]; 10 uM linoleic acid added to 10 uM trans-10, cis-12 CLA): 26% | More TG content than cultures treated with 10 uM trans-10, cis-12 CLA alone ([1]; 30 uM linoleic acid added to 10 uM trans-10, cis-12 CLA): 55% | More TG content than cultures treated with 10 uM trans-10, cis-12 CLA alone ([1]; 100 uM linoleic acid added to 10 uM trans-10, cis-12 CLA): 64% | Incorporation of 14C-glucose into cellular lipid per 10^6 cells, dose response [6]: neither linoleic acid nor trans-9, cis-11 CLA influenced de novo lipogenesis | TG content, concurrent linoleic acid with trans-10, cis-12 CLA (3T3-L1 preadipocytes [8]): able to prevent the TG-lowering effects of trans-10, cis-12 CLA | PPARγ2 protein levels, concurrent LA and trans-10, cis-12 CLA vs CLA alone (PPARγ2; 6 d): increased PPARγ2 protein levels | PPARγ2 protein expression (PPARγ2; after 6 d of treatment): decreased | PPARγ2 protein expression compared to BSA controls (PPARγ2; day 2 of differentiation): reduced PPARγ2 protein expression | aP2 protein expression (aP2): decreased | CLA-induced morphological changes (3T3-L1 preadipocytes [9]): inhibited the CLA-induced morphological changes in a dose-dependent manner | Cell number (3T3-L1 preadipocytes [10]): increased cell number
